These results are taken from patent publication US4916145A, “Substituted n-[(pyridyl)alkyl]aryl-carboxamide” (Hoffmann-La Roche Inc., priority 1987, dated 1990).

Assay [1] concerns PAF-Induced Bronchoconstriction. Nature of the assay: PAF-Induced Bronchoconstriction Assay. The following applies: for inhibition in vivo at 1 mg/kg / inhibition in vivo at 50 mg/kg: Cavia porcellus; for inhibition in vivo at 1 mg/kg: 1 min; for inhibition in vivo at 50 mg/kg: po, 2 hours pretreatment. It counts as in vivo, guinea pig. As to the method:
The in vivo ability of compounds to inhibit PAF-induced bronchoconstriction in guinea pigs was assessed by the intravenous and oral routes of administration. The intravenous technique utilized male guinea pigs (Hartley strain, Charles River) weighing 400-600 g. Animals were anesthetized with urethane (2 g/kg) intraperitoneally and a polyethylene cannula was inserted into the jugular vein for intravenous drug administration. Tracheal pressure ([…]) was recorded from a Statham pressure transducer (P 32 AA). Propranolol was administered 5 minutes prior to challenge with PAF. Two minutes later spontaneous breathing was arrested with succinylcholine chloride (1.2 mg/kg) administered intravenously, and the animals were ventilated with a Harvard (Model 680) small animal respirator set at 40 breaths/min and 4.0 cc stroke volume. Control vehicle or test drug was administered through the cannula into the jugular vein 1 minute before the animals were challenged with a maximum constrictory dose of PAF (1.0 μg/kg) given intravenously. The change in tracheal pressure was averaged for four control and four drug-treated animals and percent inhibition was calculated.
For determination of oral activity, animals were dosed with test compound or vehicle two hours prior to challenge with PAF (1.0 μg/kg, i.v.).
The change in tracheal pressure is determined by subtracting the steady state baseline achieved after administration of succinylcholine from the peak bronchoconstriction seen after challenge with PAF. The mean change in tracheal pressure is calculated for each test compound and compared to the mean change in tracheal pressure for the control animals to give the percent inhibition of bronchoconstriction. The standard error is calculated as the standard error of the mean.

Assay [2] deals with T1, PAF binding, dog platelets (Canis lupus familiaris, UniProt A0A8I3NSH0).
T1 sequence (A0A8I3NSH0 1-343): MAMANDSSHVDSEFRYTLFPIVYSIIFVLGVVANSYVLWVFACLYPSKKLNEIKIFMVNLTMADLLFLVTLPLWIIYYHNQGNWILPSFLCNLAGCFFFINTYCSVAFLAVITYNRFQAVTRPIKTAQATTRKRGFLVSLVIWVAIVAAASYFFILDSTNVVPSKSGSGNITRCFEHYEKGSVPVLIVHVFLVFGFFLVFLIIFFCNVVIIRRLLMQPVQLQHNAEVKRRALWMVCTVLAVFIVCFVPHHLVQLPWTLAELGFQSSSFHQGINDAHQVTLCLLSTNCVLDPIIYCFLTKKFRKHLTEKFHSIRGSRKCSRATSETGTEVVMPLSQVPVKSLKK
Kind of assay: PAF Binding Assay (3H-PAF binding to washed dog platelets). Particulars: 10 minutes at room temperature.
Description: The binding assay was performed in 400 μl polyethylene microcentrifuge tubes (Beckman) containing 50 μl of an oil mixture of 2 parts Siliconol AR200 (Serva): 1 part Silicone Fluid (Arthur H. Thomas). Buffer, standards, or analogs 150 μl total volume) were added to the tubes. Radiolabelled ^3 H-PAF (50 μl) was then added to the tubes. The reaction was started by the addition of 50 μl of dog platelets (2×10^7 platelets). The tubes were capped, inverted several times to mix, and incubated for 10 minutes at room temperature. The platelets were separated from the incubation mixture by centrifuging 1 minute in a Beckman Microfuge B centrifuge. The tip of the microfuge tube was cut off, and the platelets were washed out of the tip with 200 μl of 50% methanol (Burdick and Jackson). Aquasol (NEN, 10 ml) was added and the radioactivity in the samples was determined using an LS 8100 Beckman liquid scintillation counter linked to a Techtran tape recorder. Data was processed through an in-house computer system. Alternatively, radioactivity was determined using a Searle Mark III liquid scintillation counter linked to a Iso-Data microprocessor.
Blood was collected from anesthesized or unanesthesized dogs into 5ml plastic centrifuge tubes containing 3.8% sodium citrate as the anticoagulant (1 volume of citrate/9 volumes of blood). The red cells were removed by centrifugation for 15 minutes at 600 rpm (100-125 g) at room temperature. An aliquot of the supernatant platelet rich Plasma (PRP) was saved for cell counting and the remainder was acidified to pH 6.5 with 0.15M citric acid. The platelet pellet was obtained after a 10 minute centrifugation at 2000 rpm (1000 g) at room temperature. Washed platelets were prepared by resuspending the platelet pellet once with PBS containing 1 mM EDTA, centrifuging as noted, and then resuspending the platelets in 0.1% BSA-PBS. An aliquot of the washed platelets was counted, platelets used for binding assays were diluted to 2×10^7 platelets/assay tube (4×10^8 platelets/ml).

Where [3] appears, read: 1 mg/kg iv, 1 minute pretreatment.

For `COc1ccc(-c2ccc(C(=O)NCCCCc3cccnc3)cc2OC)cc1OC` [2,3',4'-trimethoxy-N-[4-(3-pyridinyl)butyl]-[1,1'-biphenyl]-4-carboxamide], in assay [1] (setting [3]), the inhibition in vivo at 1 mg/kg was 58 ± 10%. The molecule also showed an IC50 in assay [2] of 300 nM.
For `COc1ccc(-c2ccc(C(=O)NCCCCc3cccnc3)cc2Br)cc1OC` [2-Bromo-3',4'-dimethoxy-N-[4-(3-pyridinyl)butyl]-[1,1'biphenyl]-4-carboxamide], in assay [1] (setting [3]), the inhibition in vivo at 1 mg/kg was 81 ± 10%. Moreover, the inhibition in vivo at 50 mg/kg in assay [1] amounted to 74 ± 12%. Also, in assay [2], the 50% inhibitory concentration (IC50) amounted to 200 nM.
For the molecule `CCCCc1cc(C(=O)NCCCCc2cccnc2)ccc1-c1ccc(OC)c(OC)c1` [2-Butyl-3',4'-dimethoxy-N-[4-(3-pyridinyl)butyl][1,1'-biphenyl)-4-carboxamide], in assay [1] (setting [3]), the inhibition in vivo at 1 mg/kg is 6 ± 4%.
For the molecule `CCCCc1cc(C(=O)NCCCCc2cccnc2)ccc1-c1ccccc1` [2-Butyl-N-[4-(3-pyridinyl)butyl][1,1'-biphenyl]-4-carboxamide], the inhibition in vivo at 1 mg/kg in assay [1] (setting [3]) came out at 27 ± 10%. In assay [2], this molecule showed an IC50 of 500 nM.
`COc1ccc(-c2ccc(C(=O)NCCCCc3cccnc3)cc2[N+](=O)[O-])cc1OC` [2-Nitro-3',4'-dimethoxy-N-[4-(3-pyridinyl)-butyl][1,1'-biphenyl]-4-carboxamide]: the inhibition in vivo at 1 mg/kg in assay [1] (setting [3]) amounted to 81 ± 15%. Also, the inhibition in vivo at 50 mg/kg in assay [1] is 62 ± 15%. The same molecule yielded an IC50 in assay [2] of 200 nM.
Consider `CCCc1cc(C(=O)NCCCCc2cccnc2)ccc1-c1ccccc1` [2-Propyl-N-[4-(3-pyridinyl)butyl][1,1'-biphenyl]-4-carboxamide], for which the inhibition in vivo at 1 mg/kg in assay [1] (setting [3]) was 38 ± 8%. In addition, the half-maximal inhibitory concentration (IC50) in assay [2] was 60 nM.
Take `Cc1ccc(-c2ccc(C(=S)NCCCCc3cccnc3)cc2)cc1C` [3',4'-Dimethyl-N-[4-(3-pyridinyl)butyl][1,1-biphenyl]-4-carbothioamide]: the “PAF-Induced Bronchoconstriction % Inhibition, 1 mg/kg iv” value in assay [1] (setting [3]) was “potentiation”. Also, the IC50 in assay [2] was determined as 600 nM.
In the case of `CCCCc1ccc(C(=O)NCCCCc2cccnc2)cc1CCCC` [3,4-Dibutyl-N-[4-(3-pyridinyl)butyl]benzamide], the IC50 in assay [2] was > 1000 nM.
Consider `O=C(NCCCCc1cccnc1)c1ccc(-c2cccc(F)c2)c(-c2cccc(F)c2)c1` [3,4-bis-(3-Fluorophenyl)-N-[4-(3-pyridinyl)butyl]-benzamide], for which, in assay [1] (setting [3]), the inhibition in vivo at 1 mg/kg came out at 12 ± 2%. This molecule gave an IC50 in assay [2] of 400 nM.
Take `COc1ccc(-c2ccc(C(=O)NCCCCc3cccnc3)cc2-c2ccc(OC)cc2)cc1` [3,4-bis-(4,Methoxyphenyl)-N-[4-(3-pyridinyl)butyl]-benzamide]: the inhibition in vivo at 1 mg/kg in assay [1] (setting [3]) stood at 26 ± 6%. The IC50 in assay [2] was found to be 125 nM.
As for `Cc1ccc(-c2ccc(-c3nnn(CCCc4cccnc4)n3)cc2)cc1C` [3-[3-[5-(3',4'-Dimethyl-[1,1'-biphenyl]-4-yl)-2H-tetrazol-2-yl]propyl]pyridine], the inhibition in vivo at 1 mg/kg in assay [1] (setting [3]) came to 11 ± 3%. Also, the IC50 in assay [2] was > 1000 nM.
For `Cc1ccc(-c2ccc(-c3nnn(CCCCc4cccnc4)n3)cc2)cc1C` [3-[4-[5-(3',4'-Dimethyl-[1,1'-biphenyl]-4-yl)-2H-tetrazol-2-yl]butyl]pyridine], the inhibition in vivo at 1 mg/kg in assay [1] (setting [3]) is 17 ± 15%. Moreover, the IC50 in assay [2] is > 1000 nM.
The like results for `Cc1ccc(-c2ccc(-c3nnn(CCCCCCc4cccnc4)n3)cc2)cc1C` [3-[6-[5-(3',4'-Dimethyl-[1,1'-biphenyl]-4-yl)-2H-tetrazol-2-yl]hexyl]pyridine] were, in that order, 40 ± 4% and > 1000 nM.
As for `O=C(NCCCCc1cccnc1)c1ccc(C2CCCCC2)cc1` [4-Cyclohexyl-N-[4-(3-pyridinyl)butyl]-benzamide], the inhibition in vivo at 1 mg/kg in assay [1] (setting [3]) stood at 17 ± 7%. For the same molecule, the IC50 in assay [2] worked out at 250 nM.
On to `COc1ccc(-c2ccc(C(=O)N[C@H](C)CCCc3cccnc3)cc2Br)cc1OC` [(R)-2-Bromo-3',4'-dimethoxy-N-[1-methyl-4-(3-pyridinyl)-butyl][1,1'-biphenyl]-4-carboxamide], for which, in assay [1] (setting [3]), the inhibition in vivo at 1 mg/kg worked out at 98 ± 0.7%. The inhibition in vivo at 50 mg/kg in assay [1] amounted to 97 ± 1%. The molecule also displayed an IC50 in assay [2] of 180 nM.
`CCCCc1cc(C(=O)N[C@H](C)CCCc2cccnc2)ccc1-c1ccc(OC)c(OC)c1` [(R)-2-Butyl-3',4'-dimethoxy-N-[1-Methyl-4-(3-pyridinyl)butyl][1,1'-biphenyl]-4-carboxamide]: the inhibition in vivo at 1 mg/kg in assay [1] (setting [3]) stood at 55 ± 12%.
Turning to `CCc1cc(C(=O)N[C@H](C)CCCc2cccnc2)ccc1-c1ccc(OC)c(OC)c1` [(R)-2-Ethyl-3',4'-dimethoxy-N-[1-methyl-4-(3-pyridinyl)butyl][1,1'-biphenyl]-4-carboxamide], the inhibition in vivo at 1 mg/kg in assay [1] (setting [3]) worked out at 93 ± 1%. For the same molecule, in assay [1], the inhibition in vivo at 50 mg/kg came to 89 ± 5%. In assay [2], this molecule registered a half-inhibitory concentration (IC50) of 4 nM.
The like results for `COc1ccc(-c2ccc(C(=O)N[C@H](C)CCCc3cccnc3)cc2[N+](=O)[O-])cc1OC` [(R)-2-Nitro-3',4'-dimethoxy-N-[1-methyl-4-(3-pyridinyl)-butyl][1,1'-biphenyl]-4-carboxamide] were, in that order, 97 ± 4%, 89 ± 8% and 200 nM.
For the molecule `CCCc1cc(C(=O)N[C@H](C)CCCc2cccnc2)ccc1-c1ccccc1` [(R)-2-Propyl-N-[1-methyl-4-(3-pyridinyl)-butyl]-[1,1'-biphenyl]-4-carboxamide], the inhibition in vivo at 1 mg/kg in assay [1] (setting [3]) was 12 ± 6%. For the same molecule, the IC50 in assay [2] stood at 50 nM.
Consider `C=CCc1cc(C(=O)N[C@H](C)CCCc2cccnc2)ccc1-c1ccc(OC)c(OC)c1` [(R)-3',4'-Dimethoxy-N-[1-methyl-4-(3-pyridinyl)butyl]-2-(2-propenyl)-[1,1'-biphenyl]-4-carboxamide], for which the inhibition in vivo at 1 mg/kg in assay [1] (setting [3]) is 80 ± 11%. In addition, in assay [1], the inhibition in vivo at 50 mg/kg was determined as 93 ± 3%. The same molecule showed an IC50 in assay [2] of 80 nM.
For `CCCc1cc(C(=O)N[C@H](C)CCCc2cccnc2)ccc1-c1ccc(OC)c(OC)c1` [(R)-3',4'-Dimethoxy-N-[1-methyl-4-(3-pyridinyl)butyl]-2-propyl-[1,1'-biphenyl]-4-carboxamide], the inhibition in vivo at 1 mg/kg in assay [1] (setting [3]) is 28 ± 12%. Further, the IC50 in assay [2] was determined as 50 nM.
With `COc1ccc(-c2ccc(C(=O)N[C@H](C)CCCc3cccnc3)cc2)cc1OC` [(R)-3',4'-Dimethoxy-N-[1-methyl-4-(3-pyridinyl)butyl][1,1'-biphenyl]-4-carboxamide], the inhibition in vivo at 1 mg/kg in assay [1] (setting [3]) was determined as 65 ± 11%. Moreover, the inhibition in vivo at 50 mg/kg in assay [1] stood at 88 ± 3%.
As for `C[C@H](CCCc1cccnc1)NC(=O)c1ccc(-c2ccccc2)c(-c2ccccc2)c1` [(R)-3,4-diphenyl-N-[1-methyl-4-(3-pyridinyl)-butyl]benzamide], in assay [1] (setting [3]), the inhibition in vivo at 1 mg/kg is 31 ± 4%. The molecule further registered an IC50 in assay [2] of 250 nM.
The like results for `O=C(NCCCCc1cccnc1)c1cccc(-c2ccccc2)c1` [N-[4-(3-pyridinyl)butyl][1,1'-biphenyl]-3-carboxamide] were, in that order, 14 ± 10% and 620 nM.

As a reminder, the inhibition in vivo is the share of the control response that was lost under treatment. Usually IC50 stands for the point on the concentration scale where inhibition reaches its midpoint.
